# Results taken from BindingDB's records for doi:10.1021/jm070521y (Wyeth Research, 2007).
# Legend:
# [1] = target: T1, 5-hydroxytryptamine receptor 6 (Homo sapiens, UniProt P50406); test: Radioligand Labeled Binding Assay and cAMP Production; conditions: pH 7.4; 22 °C
# Experimental: (§1) IC50 values for each test compound were determined from nonlinear regression analysis of data collected from ligand binding experiments. The inhibition constant (Ki) was calculated from IC50 value by the Cheng and Prusoff equation.
# [2] = target: T1, 5-hydroxytryptamine receptor 6; test: Radioligand Labeled Binding Assay; conditions: pH 7.4; 22 °C
# Experimental: as §1
# T1 sequence (P50406 whole entry): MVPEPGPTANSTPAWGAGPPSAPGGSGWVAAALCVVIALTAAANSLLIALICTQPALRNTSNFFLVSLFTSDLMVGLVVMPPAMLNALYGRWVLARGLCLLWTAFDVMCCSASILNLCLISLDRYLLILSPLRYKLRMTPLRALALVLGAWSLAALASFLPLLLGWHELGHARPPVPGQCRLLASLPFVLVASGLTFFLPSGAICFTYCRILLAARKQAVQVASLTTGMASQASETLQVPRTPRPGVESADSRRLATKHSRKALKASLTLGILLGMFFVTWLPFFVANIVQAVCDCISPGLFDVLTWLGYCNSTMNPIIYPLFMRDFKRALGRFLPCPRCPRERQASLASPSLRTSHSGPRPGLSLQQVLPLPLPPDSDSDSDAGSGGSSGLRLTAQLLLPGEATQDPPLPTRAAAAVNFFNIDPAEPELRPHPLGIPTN
SMILES,EC50 [1],Ki [1],Ki [2]
"Cc1nc(N)sc1S(=O)(=O)n1cc(CCN)c2ccccc21 [5-{[3-(2-aminoethyl)-1H-indole-1-]sulfonyl}-4-methyl-1,3-thiazol-2-amine]",9.6 nM,10 nM,
NC(N)=NN=Cc1c[nH]c2ccc(Br)cc12 [3-[(E)-[(5-bromo-1H-indol-3-yl)methylidene]amino]guanidine],,,25 nM
CC(=NNC(=N)N)c1cn(S(=O)(=O)c2ccccc2)c2ccccc12 [3-[(E)-{1-[1-(benzenesulfonyl)-1H-indol-3-yl]ethylidene}amino]guanidine],,,8 nM
"COc1ccc(S(=O)(=O)n2cc(CCN)c3ccccc32)cc1OC [2-{1-[(3,4-dimethoxybenzene)sulfonyl]-1H-indol-3-yl}ethan-1-amine]",17.5 nM,,
